Source: ChEMBL document CHEMBL1201862, “PubChem BioAssay data set” (2004)
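Values below derive from 48-hour exposures of cells grown in 96-well plates, with endpoints linearly interpolated between the two concentrations bracketing the appropriate inhibition level. GI50 marks 50% less growth.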 Activity calls are given as the source filed them. Rule as the data show it: active = GI50 up to about 1.1 µM and inactive = higher.

Key:
Assay in all cases: NCI tumour cell line growth inhibition, 48 h
NCI-H522 = system: NCI-H522
NCI-H23 = system: NCI-H23
SNB-19 = system: SNB-19
CCRF-CEM = system: CCRF-CEM
MDA-MB-231 = system: MDA-MB-231
SF-295 = system: SF-295
NCI/ADR-RES = system: NCI/ADR-RES
OVCAR-5 = system: OVCAR-5
T47D = system: T47D
Malme-3M = system: Malme-3M
SK-MEL-5 = system: SK-MEL-5
ACHN = system: ACHN
SF-539 = system: SF-539
DU-145 = system: DU-145
SW-620 = system: SW-620
UACC-62 = system: UACC-62
COLO 205 = system: COLO 205
LOX IMVI = system: LOX IMVI
SF-268 = system: SF-268
MDA-N = system: MDA-N
NCI-H460 = system: NCI-H460
HCT-116 = system: HCT-116
U-251 = system: U-251
NCI-H226 = system: NCI-H226
OVCAR-4 = system: OVCAR-4
KM12 = system: KM12
K562 = system: K562
RPMI-8226 = system: RPMI-8226
UO-31 = system: UO-31
UACC-257 = system: UACC-257
M14 = system: M14
RXF 393 = system: RXF 393
HOP-92 = system: HOP-92
SK-MEL-28 = system: SK-MEL-28
786-0 = system: 786-0
A549 = system: A549
IGROV-1 = system: IGROV-1
OVCAR-3 = system: OVCAR-3
HCT-15 = system: HCT-15
PC-3 = system: PC-3
OVCAR-8 = system: OVCAR-8
HOP-62 = system: HOP-62
MOLT-4 = system: MOLT-4
MDA-MB-435 = system: MDA-MB-435
Hs-578T = system: Hs-578T
SNB-75 = system: SNB-75
A498 = system: A498
EKVX = system: EKVX
SN12C = system: SN12C
HT-29 = system: HT-29
MCF7 = system: MCF7
CAKI-1 = system: CAKI-1
TK-10 = system: TK-10
HCC 2998 = system: HCC 2998
SK-OV-3 = system: SK-OV-3
SK-MEL-2 = system: SK-MEL-2
HL-60 = system: HL-60

Which GI50 (NCI-H522) does the source give for Clc1cccc(C2ON=C(c3ccccc3)N2C23CC4CC(CC(C4)C2)C3)c1Cl (configuration not stated) here?
Its GI50 is > 10 µM (inactive).

And the GI50 (NCI-H23)?
The GI50 was > 10 µM (inactive).

What about the GI50 (SNB-19) of the same compound?
The GI50 was > 10 µM (inactive).

What about the GI50 (CCRF-CEM) of the same compound?
The GI50 was > 10 µM (inactive).

And the GI50 (MDA-MB-231)?
Its GI50 is > 10 µM (inactive).

And the GI50 (SF-295)?
Its GI50 is > 10 µM (inactive).

And the GI50 (NCI/ADR-RES)?
Its GI50 is > 10 µM (inactive).

What about the GI50 (OVCAR-5) of the same compound?
The GI50 was > 10 µM (inactive).

And the GI50 (T47D)?
Its GI50 is > 10 µM (inactive).

And the GI50 (Malme-3M)?
The GI50 was > 10 µM (inactive).

And the GI50 (SK-MEL-5)?
Its GI50 is > 10 µM (inactive).

And the GI50 (ACHN)?
The GI50 was > 10 µM (inactive).

And the GI50 (SF-539)?
The GI50 was > 10 µM (inactive).

What about the GI50 (DU-145) of the same compound?
The GI50 was > 10 µM (inactive).

What about the GI50 (SW-620) of the same compound?
Its GI50 is > 10 µM (inactive).

What about the GI50 (UACC-62) of the same compound?
The GI50 was > 10 µM (inactive).

And the GI50 (COLO 205)?
Its GI50 is > 10 µM (inactive).

What about the GI50 (LOX IMVI) of the same compound?
Its GI50 is > 10 µM (inactive).

What about the GI50 (SF-268) of the same compound?
Its GI50 is > 10 µM (inactive).

What about the GI50 (MDA-N) of the same compound?
The GI50 was > 10 µM (inactive).

And the GI50 (NCI-H460)?
The GI50 was > 10 µM (inactive).

What about the GI50 (HCT-116) of the same compound?
Its GI50 is > 10 µM (inactive).

What about the GI50 (U-251) of the same compound?
Its GI50 is > 10 µM (inactive).

What about the GI50 (NCI-H226) of the same compound?
The GI50 was > 10 µM (inactive).

What about the GI50 (OVCAR-4) of the same compound?
Its GI50 is > 10 µM (inactive).

What about the GI50 (KM12) of the same compound?
Its GI50 is > 10 µM (inactive).

What about the GI50 (K562) of the same compound?
Its GI50 is > 10 µM (inactive).

What about the GI50 (RPMI-8226) of the same compound?
Its GI50 is > 10 µM (inactive).

What about the GI50 (UO-31) of the same compound?
Its GI50 is 5.02 µM (inactive).

What about the GI50 (UACC-257) of the same compound?
Its GI50 is > 10 µM (inactive).

What about the GI50 (M14) of the same compound?
Its GI50 is > 10 µM (inactive).

And the GI50 (RXF 393)?
The GI50 was > 10 µM (inactive).

What about the GI50 (HOP-92) of the same compound?
Its GI50 is 2.72 µM (inactive).

And the GI50 (SK-MEL-28)?
The GI50 was > 10 µM (inactive).

And the GI50 (786-0)?
Its GI50 is > 10 µM (inactive).

And the GI50 (A549)?
The GI50 was > 10 µM (inactive).

And the GI50 (IGROV-1)?
The GI50 was > 10 µM (inactive).

What about the GI50 (OVCAR-3) of the same compound?
The GI50 was > 10 µM (inactive).

What about the GI50 (HCT-15) of the same compound?
The GI50 was over 10 µM.

And the GI50 (PC-3)?
Its GI50 is 6.41 µM (inactive).

And the GI50 (OVCAR-8)?
Its GI50 is > 10 µM (inactive).

And the GI50 (HOP-62)?
Its GI50 is > 10 µM (inactive).

And the GI50 (MOLT-4)?
The GI50 was > 10 µM (inactive).

What about the GI50 (MDA-MB-435) of the same compound?
Its GI50 is > 10 µM (inactive).

And the GI50 (Hs-578T)?
Its GI50 is > 10 µM (inactive).

What about the GI50 (SNB-75) of the same compound?
The GI50 was > 10 µM (inactive).

What about the GI50 (A498) of the same compound?
The GI50 was > 10 µM (inactive).

What about the GI50 (EKVX) of the same compound?
Its GI50 is > 10 µM (inactive).

What about the GI50 (SN12C) of the same compound?
Its GI50 is > 10 µM (inactive).

What about the GI50 (HT-29) of the same compound?
The GI50 was > 10 µM (inactive).

And the GI50 (MCF7)?
The GI50 was > 10 µM (inactive).

And the GI50 (CAKI-1)?
The GI50 was > 10 µM (inactive).

And the GI50 (TK-10)?
The GI50 was > 10 µM (inactive).

What about the GI50 (HCC 2998) of the same compound?
Its GI50 is > 10 µM (inactive).

What about the GI50 (SK-OV-3) of the same compound?
The GI50 was > 10 µM (inactive).

What about the GI50 (SK-MEL-2) of the same compound?
Its GI50 is > 10 µM (inactive).

CCOC(=O)c1sc2c(c1OC(=O)c1ccco1)c(=O)n(-c1ccccc1)c(=S)n2-c1ccccc1 was tested. Which GI50 (NCI-H522) did it give?
Its GI50 is > 100 µM (inactive).

And the GI50 (NCI-H23)?
The GI50 was 28.7 µM (inactive).

And the GI50 (SNB-19)?
Its GI50 is 33.2 µM (inactive).

And the GI50 (CCRF-CEM)?
The GI50 was 35.8 µM (inactive).

What about the GI50 (MDA-MB-231) of the same compound?
The GI50 was 28.1 µM (inactive).

And the GI50 (SF-295)?
Its GI50 is > 100 µM (inactive).

And the GI50 (NCI/ADR-RES)?
Its GI50 is 21.4 µM (inactive).

And the GI50 (OVCAR-5)?
Its GI50 is > 100 µM (inactive).

What about the GI50 (T47D) of the same compound?
The GI50 was 65.6 µM (inactive).

What about the GI50 (Malme-3M) of the same compound?
The GI50 was 15.8 µM (inactive).

What about the GI50 (SK-MEL-5) of the same compound?
The GI50 was 15.8 µM (inactive).

And the GI50 (ACHN)?
Its GI50 is 27.5 µM (inactive).

And the GI50 (SF-539)?
Its GI50 is 30.7 µM (inactive).

What about the GI50 (DU-145) of the same compound?
The GI50 was 52.6 µM (inactive).

What about the GI50 (SW-620) of the same compound?
Its GI50 is 42.1 µM (inactive).

And the GI50 (UACC-62)?
Its GI50 is 26.2 µM (inactive).

What about the GI50 (COLO 205) of the same compound?
The GI50 was 19.1 µM (inactive).

And the GI50 (LOX IMVI)?
The GI50 was 25.6 µM (inactive).

And the GI50 (SF-268)?
The GI50 was 46.1 µM (inactive).

And the GI50 (HL-60)?
Its GI50 is 24.9 µM (inactive).

What about the GI50 (MDA-N) of the same compound?
The GI50 was 41.7 µM (inactive).

And the GI50 (NCI-H460)?
The GI50 was 17.7 µM (inactive).

What about the GI50 (HCT-116) of the same compound?
The GI50 was 29.7 µM (inactive).

What about the GI50 (U-251) of the same compound?
Its GI50 is 35.5 µM (inactive).

What about the GI50 (NCI-H226) of the same compound?
The GI50 was 22.1 µM (inactive).

What about the GI50 (OVCAR-4) of the same compound?
The GI50 was 26.8 µM (inactive).

What about the GI50 (KM12) of the same compound?
The GI50 was 33.4 µM (inactive).

And the GI50 (K562)?
Its GI50 is 30.4 µM (inactive).

And the GI50 (RPMI-8226)?
The GI50 was 30.6 µM (inactive).

What about the GI50 (UO-31) of the same compound?
The GI50 was 1.04 µM (active).

And the GI50 (UACC-257)?
Its GI50 is 90.2 µM (inactive).

What about the GI50 (M14) of the same compound?
Its GI50 is 28.2 µM (inactive).

What about the GI50 (RXF 393) of the same compound?
Its GI50 is 22.1 µM (inactive).

And the GI50 (HOP-92)?
The GI50 was 30.2 µM (inactive).

What about the GI50 (SK-MEL-28) of the same compound?
Its GI50 is 60.5 µM (inactive).

And the GI50 (786-0)?
The GI50 was 28.9 µM (inactive).

What about the GI50 (A549) of the same compound?
The GI50 was 38.6 µM (inactive).

What about the GI50 (IGROV-1) of the same compound?
The GI50 was 17.9 µM (inactive).

What about the GI50 (OVCAR-3) of the same compound?
Its GI50 is 26.5 µM (inactive).

And the GI50 (HCT-15)?
The GI50 was 32.1 µM.

What about the GI50 (PC-3) of the same compound?
The GI50 was 21.4 µM (inactive).

And the GI50 (OVCAR-8)?
The GI50 was 26.1 µM (inactive).

And the GI50 (HOP-62)?
The GI50 was 32.1 µM (inactive).

What about the GI50 (MOLT-4) of the same compound?
Its GI50 is 17.2 µM (inactive).

What about the GI50 (MDA-MB-435) of the same compound?
The GI50 was 28.1 µM (inactive).

What about the GI50 (Hs-578T) of the same compound?
The GI50 was 27.5 µM (inactive).

What about the GI50 (SNB-75) of the same compound?
Its GI50 is 25.9 µM (inactive).

And the GI50 (A498)?
Its GI50 is 23 µM (inactive).

What about the GI50 (EKVX) of the same compound?
The GI50 was 21.3 µM (inactive).

And the GI50 (SN12C)?
Its GI50 is 23.7 µM (inactive).

And the GI50 (HT-29)?
Its GI50 is 55.2 µM (inactive).

What about the GI50 (MCF7) of the same compound?
Its GI50 is 41.3 µM (inactive).

What about the GI50 (CAKI-1) of the same compound?
Its GI50 is 34.3 µM (inactive).

What about the GI50 (TK-10) of the same compound?
The GI50 was 39.1 µM (inactive).

And the GI50 (HCC 2998)?
Its GI50 is 31.4 µM (inactive).

What about the GI50 (SK-OV-3) of the same compound?
The GI50 was > 100 µM (inactive).
